Marks after values point to notes of the source that are not given here. Primed or numbered codes have the meaning given here. The star is where a group is joined. Ac3‑α‑GalNAc = per-acetylated α-N-acetylgalactosamine (O-glycoside), CC(=O)N[C@@H]1[C@@H](OC(C)=O)[C@@H](OC(C)=O)[C@@H](COC(C)=O)O[C@@H]1*; Ac3‑α‑GalNAc″ = peracetylated alpha-N-acetylgalactosamine, CC(=O)N[C@@H]1[C@@H](OC(C)=O)[C@@H](OC(C)=O)[C@@H](COC(C)=O)O[C@@H]1*; Ac3‑β‑GlcNAc = per-acetylated β-N-acetylglucosamine, CC(=O)N[C@@H]1[C@@H](OC(C)=O)[C@H](OC(C)=O)[C@@H](COC(C)=O)O[C@H]1*; Ac4‑β‑Glc = per-acetylated β-glucose (tetraacetyl), CC(=O)OC[C@H]1O[C@@H](*)[C@H](OC(C)=O)[C@@H](OC(C)=O)[C@@H]1OC(C)=O; Ac4‑α‑Man = per-acetylated α-mannose, CC(=O)OC[C@H]1O[C@H](*)[C@@H](OC(C)=O)[C@@H](OC(C)=O)[C@@H]1OC(C)=O; αGalNAc = CC(=O)N[C@@H]1[C@@H](O)[C@@H](O)[C@@H](CO)O[C@@H]1*; βGlcNAc = CC(=O)N[C@@H]1[C@@H](O)[C@H](O)[C@@H](CO)O[C@H]1*; αMan = OC[C@H]1O[C@H](*)[C@@H](O)[C@@H](O)[C@@H]1O; βGlc = OC[C@H]1O[C@@H](*)[C@H](O)[C@@H](O)[C@@H]1O; Palmitoyl = CCCCCCCCCCCCCCCC(=O)*
Columns and labels:
[1] = test system: Human Dermal Fibroblasts (KMST-6); assay: ECM ELISA assay: fibronectin secretion by human dermal fibroblasts; format: cell-based; conditions: 5 μM; for Fibronectin secretion at 48 hours: KMST-6, 48 hours; for Fibronectin secretion at 48 hours / Fibronectin Secretion at 72 hours: % compared to control set at 100%, normalized to total protein
Method: (§1) KMST-6 cells (Japan Health Sciences Foundation, JCRB0433) were seeded at 7,000 cells/ml in 12-well tissue culture treated plates (Falcon, 353043) in complete media. The complete media consisted of the following: MEM/EBSS (Hyclone, SH30024.01), 10% Heat-Inactivated FBS (Gibco, 10082-147), 1% L-Glutamine (Hyclone, SH30031.01), 1% Nucleosides (800 mg/L Adenosine, 850 mg/L Guanidine, 730 mg/L Cytidine, 730 mg/L Uridine and 240 mg/L Thymidine), 1% Penicillin/Streptomycin (HyClone, SV30010), 1% Sodium Pyruvate (HyClone, SH30239.01), 1% Non-Essential Amino Acids (Hyclone, SH30238.01) and 0.04% Gentamicin (Gibco, 15710-064). Cells were grown for 2 days prior to treatments. The media was aspirated and cells were washed with 1×PBS (Fisher, SH30256.01) and treated with 5 μM (1 mL/well) glycopeptides, reference (Pal-KTTKS, CPC Scientific, 822197), and control (DMSO, Fisher, BP231-100) in serum-free media supplemented with 50 μg/mL Sodium Ascorbate (Sigma, A4034) and 80 μg/mL β-Aminopropionate Fumarate (Sigma, A3134). The treated cells were incubated at 37° C. and 5% CO2 for 48 and 72 hours. At each timepoint, media from each treatment was collected and centrifuged at 1500 RPM for 15 minutes at 4° C. The supernatant was collected and stored at −80° C. for extracellular matrix protein quantification. The following kits were used for quantification of ECM proteins: Fibronectin (Takara, MK115) and Elastin (Uscn Life Science Inc., E91337Hu). The cells were harvest and lysed with 250 μL Lysis Buffer (20 mM Tris-HCl (Sigma, T1503), 137 mM NaCl (Sigma, S9888), 2 mM EDTA (Fisher, BP118), 1% IGEPAL (Sigma, 18896), 10% Glycerol (Sigma, G5516), 100 μM PMSF (Fisher, 36978) and 10 μg/mL Leupeptin (Sigma-Aldrich, L2884). They were placed on a container of ice on a plate shaker (Lab-Line Instruments, 3595) for 30 minutes. The lysate was centrifuged at 10,000 g for 5 minutes at 4° C. The supernatant was collected and used for protein quantification (BioRad, 500-0112).
(§2) To determine effects on extracellular matrix protein secretion, 5 μM of individual glycopeptides were incubated with Human Dermal Fibroblasts (KMST-6). The control sample cells were treated with DMSO (Fisher, BP231-100). As described previously, supernatant was collected from treated cells (at two time-points, 48 and 72 hours of treatment) and stored at −80° C. for subsequent extracellular matrix protein quantification using ELISA kits (Fibronectin (Takara, MK115), Elastin (Uscn Life Science Inc., E91337Hu). For the determination of total cellular protein, treated cells were harvested and lysed. The lysate was centrifuged, the supernatant was collected and then used for protein quantification (BioRad, 500-0112). ELISA plates were read on the plate reader (Molecular Devices) at absorbance of 450 nm and SoftMax Pro software was used to compute the μg/ml values of protein of interest derived from the generated 4-parameter fit standard curve. Each μg/ml of protein secreted was normalized to total protein per well. The data was analysed by averaging out normalized values from at least three independent experiments and presenting them as a % compared to control treatment set at 100% (Table 2-5). Statistical significance was performed using One-way ANOVA (p<0.05) where “*” represents statistical significance when compared to control and “#” represents statistical significance when compared to reference. […]

[2] = test system: Human Dermal Fibroblasts (KMST-6); assay: ECM ELISA assay: elastin secretion by human dermal fibroblasts; format: cell-based; conditions: 5 μM; for Elastin Secretion at 48 hours: KMST-6, 48 hours; for Elastin Secretion at 48 hours / Elastin Secretion at 72 hours: % compared to control set at 100%, normalized to total protein
Method: as §1, §2

Row | Substance | Fibronectin secretion at 48 hours [1] | Fibronectin Secretion at 72 hours ([1]; KMST-6, 72 hours) [%] | Elastin Secretion at 48 hours [2] | Elastin Secretion at 72 hours ([2]; KMST-6, 72 hours) | biological activity in fibronectin secretion compared to control ([1]; 72 hours) | FIBRONECTIN (ECM Protein Summary Table) ([1]; KMST-6, 72 hours, control 100%) [%] | biological activity in elastin secretion compared to control ([2]; 72 hours) | ELASTIN (ECM Protein Summary Table) ([2]; KMST-6, 72 hours, control 100%) [%]
1 | Pal-KS(β-Glc)TKS-OH (Palmitoyl-KS(βGlc)TKS-OH; SMILES CCCCCCCCCCCCCCCC(=O)N[C@@H](CCCCN)C(=O)N[C@@H](CO[C@@H]1O[C@H](CO)[C@@H](O)[C@H](O)[C@H]1O)C(=O)N[C@H](C(=O)N[C@@H](CCCCN)C(=O)N[C@@H](CO)C(=O)O)[C@@H](C)O; listed as Homo sapiens) [GP003-4] | 165.8* % | 132.5 | 136.8% | 120.8% | – | – | – | –
2 | Pal-KT(Ac3-α-GalNAc)-T(Ac3-α-GalNAc)KS-OH (Palmitoyl-KT(Ac3‑α‑GalNAc″)T(Ac3‑α‑GalNAc″)KS-OH; SMILES CCCCCCCCCCCCCCCC(=O)N[C@@H](CCCCN)C(=O)N[C@H](C(=O)N[C@H](C(=O)N[C@@H](CCCCN)C(=O)N[C@@H](CO)C(=O)O)[C@@H](C)O[C@H]1O[C@H](COC(C)=O)[C@H](OC(C)=O)[C@H](OC(C)=O)[C@H]1NC(C)=O)[C@@H](C)O[C@H]1O[C@H](COC(C)=O)[C@H](OC(C)=O)[C@H](OC(C)=O)[C@H]1NC(C)=O; listed as Homo sapiens) [GP001-13] | 114.0% | 94.50 | 123.8% | 131.3% | – | – | – | –
3 | Pal-KT(Ac3-α-GalNAc)TKS-OH (Palmitoyl-KT(Ac3‑α‑GalNAc)TKS-OH; SMILES CCCCCCCCCCCCCCCC(=O)N[C@@H](CCCCN)C(=O)N[C@H](C(=O)N[C@H](C(=O)N[C@@H](CCCCN)C(=O)N[C@@H](CO)C(=O)O)[C@@H](C)O)[C@@H](C)O[C@H]1O[C@H](COC(C)=O)[C@H](OC(C)=O)[C@H](OC(C)=O)[C@H]1NC(C)=O; listed as Homo sapiens) [GP001-3] | 163.8* % | 117.4 | 123.3% | 132.5% | – | – | – | –
4 | Pal-KT(Ac3-β-GlcNAc)TKS-OH (Palmitoyl-KT(Ac3‑β‑GlcNAc)TKS-OH; SMILES CCCCCCCCCCCCCCCC(=O)N[C@@H](CCCCN)C(=O)N[C@H](C(=O)N[C@H](C(=O)N[C@@H](CCCCN)C(=O)N[C@@H](CO)C(=O)O)[C@@H](C)O)[C@@H](C)O[C@@H]1O[C@H](COC(C)=O)[C@@H](OC(C)=O)[C@H](OC(C)=O)[C@H]1NC(C)=O; listed as Homo sapiens) [GP001-5] | 125.0% | 105.0 | 81.67% | 90.00% | – | – | – | –
5 | Pal-KT(Ac4-α-Man)TKS-OH (Palmitoyl-KT(Ac4‑α‑Man)TKS-OH; SMILES CCCCCCCCCCCCCCCC(=O)N[C@@H](CCCCN)C(=O)N[C@H](C(=O)N[C@H](C(=O)N[C@@H](CCCCN)C(=O)N[C@@H](CO)C(=O)O)[C@@H](C)O)[C@@H](C)O[C@H]1O[C@H](COC(C)=O)[C@@H](OC(C)=O)[C@H](OC(C)=O)[C@@H]1OC(C)=O; listed as Homo sapiens) [GP003-1] | 193.7* % | 125.3 | 464.1* % | 413.6* % | – | – | – | –
6 | Pal-KT(Ac4-β-Glc)TKS-OH (Palmitoyl-KT(Ac4‑β‑Glc)TKS-OH; SMILES CCCCCCCCCCCCCCCC(=O)N[C@@H](CCCCN)C(=O)N[C@H](C(=O)N[C@H](C(=O)N[C@@H](CCCCN)C(=O)N[C@@H](CO)C(=O)O)[C@@H](C)O)[C@@H](C)O[C@@H]1O[C@H](COC(C)=O)[C@@H](OC(C)=O)[C@H](OC(C)=O)[C@H]1OC(C)=O; listed as Homo sapiens) [GP001-1] | 159.3* % | 121.5 | 205.3% | 188.0% | greater biological activity | 122 | greater biological activity | 188
7 | Pal-KT(α-GalNAc)-T(α-GalNAc)KS-OH (Palmitoyl-KT(αGalNAc)T(αGalNAc)KS-OH; SMILES CCCCCCCCCCCCCCCC(=O)N[C@@H](CCCCN)C(=O)N[C@H](C(=O)N[C@H](C(=O)N[C@@H](CCCCN)C(=O)N[C@@H](CO)C(=O)O)[C@@H](C)O[C@H]1O[C@H](CO)[C@H](O)[C@H](O)[C@H]1NC(C)=O)[C@@H](C)O[C@H]1O[C@H](CO)[C@H](O)[C@H](O)[C@H]1NC(C)=O; listed as Homo sapiens) [GP001-14] | 104.8% | 94.75 | 88.00% | 98.25% | – | – | – | –
8 | Pal-KT(α-GalNAc)TKS-OH (Palmitoyl-KT(αGalNAc)TKS-OH; SMILES CCCCCCCCCCCCCCCC(=O)N[C@@H](CCCCN)C(=O)N[C@H](C(=O)N[C@H](C(=O)N[C@@H](CCCCN)C(=O)N[C@@H](CO)C(=O)O)[C@@H](C)O)[C@@H](C)O[C@H]1O[C@H](CO)[C@H](O)[C@H](O)[C@H]1NC(C)=O; listed as Homo sapiens) [GP001-4] | 134.2% | 112.5 | 104.5% | 100.0% | – | – | – | –
9 | Pal-KT(α-Man)TKS-OH (Palmitoyl-KT(αMan)TKS-OH; SMILES CCCCCCCCCCCCCCCC(=O)N[C@@H](CCCCN)C(=O)N[C@H](C(=O)N[C@H](C(=O)N[C@@H](CCCCN)C(=O)N[C@@H](CO)C(=O)O)[C@@H](C)O)[C@@H](C)O[C@H]1O[C@H](CO)[C@@H](O)[C@H](O)[C@@H]1O; listed as Homo sapiens) [GP003-2] | 165.0* % | 110.3 | 121.0% | 160.4% | – | – | – | –
10 | Pal-KT(β-Glc)TKS-OH (Palmitoyl-KT(βGlc)TKS-OH; SMILES CCCCCCCCCCCCCCCC(=O)N[C@@H](CCCCN)C(=O)N[C@H](C(=O)N[C@H](C(=O)N[C@@H](CCCCN)C(=O)N[C@@H](CO)C(=O)O)[C@@H](C)O)[C@@H](C)O[C@@H]1O[C@H](CO)[C@@H](O)[C@H](O)[C@H]1O; listed as Homo sapiens) [GP001-2] | 133.0% | 115.4 | 102.8% | 94.50% | – | – | – | –
11 | Pal-KT(β-GlcNAc)TKS-OH (Palmitoyl-KT(βGlcNAc)TKS-OH; SMILES CCCCCCCCCCCCCCCC(=O)N[C@@H](CCCCN)C(=O)N[C@H](C(=O)N[C@H](C(=O)N[C@@H](CCCCN)C(=O)N[C@@H](CO)C(=O)O)[C@@H](C)O)[C@@H](C)O[C@@H]1O[C@H](CO)[C@@H](O)[C@H](O)[C@H]1NC(C)=O; listed as Homo sapiens) [GP001-6] | 123.2% | 100.0 | 91.00% | 81.50% | – | – | – | –
12 | Pal-KTT(Ac3-α-GalNAc)KS-OH (Palmitoyl-KTT(Ac3‑α‑GalNAc)KS-OH; SMILES CCCCCCCCCCCCCCCC(=O)N[C@@H](CCCCN)C(=O)N[C@H](C(=O)N[C@H](C(=O)N[C@@H](CCCCN)C(=O)N[C@@H](CO)C(=O)O)[C@@H](C)O[C@H]1O[C@H](COC(C)=O)[C@H](OC(C)=O)[C@H](OC(C)=O)[C@H]1NC(C)=O)[C@@H](C)O; listed as Homo sapiens) [GP001-9] | 123.4% | 104.8 | 103.7% | 104.3% | – | – | – | –
